From patent US10351561B2, “Pyrazolo[3,4-b]pyridines and imidazo[1,5-b]pyridazines as PDE1 inhibitors” (H. Lundbeck A/S, priority 2016, dated 2019)

How the values were obtained:
Type in all cases: biochemical
PDE1B = PDE1B (Homo sapiens, UniProt Q01064); test: PDE1 inhibition assay (PDE1B), SPA with tritium labelled cAMP; conditions: 15 nM tritium labelled cAMP, 1 hr at room temperature, SPA beads; read-out: PDE1B, IC50
Protocol: Reactions were initiated by addition of the cyclic nucleotide substrate, and reactions were allowed to proceed for 1 hr at room temperature before being terminated through mixing with 20 μL (0.2 mg) yttrium silicate SPA beads (PerkinElmer).

PDE1A = PDE1A (Homo sapiens, UniProt P54750); test: PDE1 inhibition assay (PDE1A), SPA with tritium labelled cAMP; conditions: 15 nM tritium labelled cAMP, 1 hr at room temperature, SPA beads
Protocol: (§1) PDE1A, PDE1B and PDE1C assays were performed as follows: the assays were performed in 60 μL samples containing a fixed amount of the PDE1 enzyme (sufficient to convert 20-25% of the cyclic nucleotide substrate), a buffer (50 mM HEPES (4-(2-hydroxyethyl)-1-piperazineethanesulfonic acid) pH 7.6; 10 mM MgCl2; 0.02% Tween20), 0.1 mg/ml BSA (bovine serum albumin), 15 nM tritium labelled cAMP and varying amounts of inhibitors. Reactions were initiated by addition of the cyclic nucleotide substrate, and reactions were allowed to proceed for 1 hr at room temperature before being terminated through mixing with 20 μL (0.2 mg) yttrium silicate SPA beads (PerkinElmer). The beads were allowed to settle for 1 hr in the dark before the plates were counted in a Wallac 1450 Microbeta counter. The measured signals were converted to activity relative to an uninhibited control (100%) and IC50 values were calculated using XIFit (model 205, IDBS).

PDE1C = PDE1C (Homo sapiens, UniProt Q14123); test: PDE1 inhibition assay (PDE1C), SPA with tritium labelled cAMP; conditions: 15 nM tritium labelled cAMP, 1 hr at room temperature, SPA beads
Protocol: as §1

Sequence of PDE1B (Q01064 whole entry): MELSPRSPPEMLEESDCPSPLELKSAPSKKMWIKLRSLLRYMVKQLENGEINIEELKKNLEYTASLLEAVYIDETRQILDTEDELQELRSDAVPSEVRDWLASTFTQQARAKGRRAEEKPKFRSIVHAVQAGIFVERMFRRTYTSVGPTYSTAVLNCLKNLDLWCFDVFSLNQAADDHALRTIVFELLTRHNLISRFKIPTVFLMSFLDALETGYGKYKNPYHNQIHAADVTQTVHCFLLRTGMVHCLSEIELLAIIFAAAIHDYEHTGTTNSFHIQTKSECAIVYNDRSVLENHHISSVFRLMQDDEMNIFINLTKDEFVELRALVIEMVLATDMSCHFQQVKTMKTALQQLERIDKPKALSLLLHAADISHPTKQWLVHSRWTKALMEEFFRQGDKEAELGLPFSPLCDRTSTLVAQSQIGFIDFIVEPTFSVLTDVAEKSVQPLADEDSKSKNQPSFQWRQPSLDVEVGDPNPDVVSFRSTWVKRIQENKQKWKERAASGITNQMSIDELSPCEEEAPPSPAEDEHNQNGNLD
Sequence of PDE1A (P54750 whole entry): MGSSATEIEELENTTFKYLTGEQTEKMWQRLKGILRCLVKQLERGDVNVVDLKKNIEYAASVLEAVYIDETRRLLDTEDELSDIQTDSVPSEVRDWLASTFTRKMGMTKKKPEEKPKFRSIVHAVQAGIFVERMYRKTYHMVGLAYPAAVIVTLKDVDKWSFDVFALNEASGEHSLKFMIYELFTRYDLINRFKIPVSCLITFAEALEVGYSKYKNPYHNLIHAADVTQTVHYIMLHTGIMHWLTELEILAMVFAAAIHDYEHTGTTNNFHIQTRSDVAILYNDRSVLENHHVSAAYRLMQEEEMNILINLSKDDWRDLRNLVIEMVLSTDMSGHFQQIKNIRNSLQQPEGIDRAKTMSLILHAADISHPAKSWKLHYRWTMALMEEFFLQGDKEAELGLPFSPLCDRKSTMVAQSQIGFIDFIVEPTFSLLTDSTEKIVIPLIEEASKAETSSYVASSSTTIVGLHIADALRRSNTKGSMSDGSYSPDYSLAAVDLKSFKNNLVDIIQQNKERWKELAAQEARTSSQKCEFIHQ
Sequence of PDE1C (Q14123 whole entry): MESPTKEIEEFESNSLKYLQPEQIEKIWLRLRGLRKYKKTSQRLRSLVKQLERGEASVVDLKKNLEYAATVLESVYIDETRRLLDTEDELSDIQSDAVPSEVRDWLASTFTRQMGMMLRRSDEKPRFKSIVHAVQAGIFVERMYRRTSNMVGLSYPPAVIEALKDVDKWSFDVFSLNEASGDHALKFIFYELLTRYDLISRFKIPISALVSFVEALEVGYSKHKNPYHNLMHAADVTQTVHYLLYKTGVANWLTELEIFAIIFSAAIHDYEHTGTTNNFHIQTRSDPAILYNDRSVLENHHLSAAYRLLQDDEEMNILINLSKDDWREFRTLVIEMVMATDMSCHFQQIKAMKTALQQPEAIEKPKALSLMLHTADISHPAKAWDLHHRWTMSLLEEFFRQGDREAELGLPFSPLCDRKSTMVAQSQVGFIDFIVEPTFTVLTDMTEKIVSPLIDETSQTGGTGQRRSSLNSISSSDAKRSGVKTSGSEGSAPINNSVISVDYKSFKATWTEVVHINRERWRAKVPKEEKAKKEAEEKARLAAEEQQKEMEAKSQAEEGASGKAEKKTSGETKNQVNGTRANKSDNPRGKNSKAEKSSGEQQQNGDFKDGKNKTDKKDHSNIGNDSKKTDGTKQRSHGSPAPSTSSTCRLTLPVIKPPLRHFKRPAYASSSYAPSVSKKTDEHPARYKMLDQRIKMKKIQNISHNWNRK

Compound | IC50 (PDE1B) | IC50 (PDE1A) | IC50 (PDE1C)
CCOc1ncccc1-c1cc(NCc2ncn(C)n2)c2c(C(C)CC)nc(C)n2n1 (single isomer, unassigned; (+)) [Example 50, (+)-2-(2-ethoxy-3-pyridyl)-7-methyl-N-[(1-methyl-1,2,4-triazol-3-yl)methyl]-5-[1-methylpropyl]imidazo[1,5-b]pyridazin-4-amine] | 0.53 nM | 5.6 nM | 2.4 nM
CCOc1ncccc1-c1cc(NCc2cc[nH]n2)c2c(C(C)CC)nc(C)n2n1 (single isomer, unassigned; (+)) [Example 51, (+)-2-(2-ethoxy-3-pyridyl)-7-methyl-N-(1H-pyrazol-3-ylmethyl)-5-[1-methylpropyl]imidazo[1,5-b]pyridazin-4-amine] | 4.3 nM | 57 nM | 31 nM
CCOc1ncccc1-c1cc(NCc2ccnc(OC)c2)c2c(C(C)CC)nc(C)n2n1 (single isomer, unassigned; (+)) [Example 53, (+)-2-(2-ethoxy-3-pyridyl)-N-[(2-methoxy-4-pyridyl)methyl]-7-methyl-5-[1-methylpropyl]imidazo[1,5-b]pyridazin-4-amine] | 12 nM | 62 nM | 11 nM
CCOc1ncccc1-c1cc(NCc2cnn(C)c2)c2c(C(C)CC)nc(C)n2n1 (single isomer, unassigned; (-)) [Example 47, (−)-2-(2-ethoxy-3-pyridyl)-7-methyl-N-[(1-methylpyrazol-4-yl)methyl]-5-[1-methylpropyl]imidazo[1,5-b]pyridazin-4-amine] | 7.5 nM | 44 nM | 32 nM
CCOc1ncccc1-c1cc(NCc2ncn(C)n2)c2c(C(C)CC)nc(C)n2n1 (single isomer, unassigned; (-)) [Example 49, (−)-2-(2-ethoxy-3-pyridyl)-7-methyl-N-[(1-methyl-1,2,4-triazol-3-yl)methyl]-5-[1-methylpropyl]imidazo[1,5-b]pyridazin-4-amine] | 1.4 nM | 14 nM | 7.6 nM
CCOc1ncccc1-c1cc(NCc2coc(C)n2)c2c(C(C)C)nn(C)c2n1 [Example 2, 6-(2-ethoxy-3-pyridyl)-3-isopropyl-1-methyl-N-[(2-methyloxazol-4-yl)methyl]pyrazolo[3,4-b]pyridin-4-amine] | 15 nM | 81 nM | 99 nM
CCOc1ncccc1-c1cc(NCc2cc[nH]n2)c2c(C(C)C)nn(C)c2n1 [Example 3, 6-(2-ethoxy-3-pyridyl)-3-isopropyl-1-methyl-N-(1H-pyrazol-3-ylmethyl)pyrazolo[3,4-b]pyridin-4-amine] | 4.3 nM | 56 nM | 58 nM
CCOc1ncccc1-c1cc(NCc2coc(C)n2)c2c(C(C)C)nc(C)n2n1 [Example 9, 2-(2-ethoxy-3-pyridyl)-5-isopropyl-7-methyl-N-[(2-methyloxazol-4-yl)methyl]imidazo[1,5-b]pyridazin-4-amine] | 4.3 nM | 30 nM | 29 nM
CCOc1ncccc1-c1cc(NCc2cnc(C)o2)c2c(C(C)C)nc(C)n2n1 [Example 16, 2-(2-ethoxy-3-pyridyl)-5-isopropyl-7-methyl-N-[(2-methyloxazol-5-yl)methyl]imidazo[1,5-b]pyridazin-4-amine] | 2.8 nM | 19 nM | 16 nM
CCOc1ncccc1-c1cc(NCc2cn[nH]c2)c2c(C(C)C)nc(C)n2n1 [Example 18, 2-(2-ethoxy-3-pyridyl)-5-isopropyl-7-methyl-N-(1H-pyrazol-4-ylmethyl)imidazo[1,5-b]pyridazin-4-amine] | 5.7 nM | 33 nM | 16 nM
CCOc1ncccc1-c1cc(NCc2cnn(C)c2)c2c(C(C)C)nn(C)c2n1 [Example 19, 6-(2-ethoxy-3-pyridyl)-3-isopropyl-1-methyl-N-[(1-methylpyrazol-4-yl)methyl]pyrazolo[3,4-b]pyridin-4-amine] | 5.8 nM | 44 nM | 56 nM

The remaining compounds from weak to strong by IC50 (PDE1B), led by results:

IC50 (PDE1B) | IC50 (PDE1A) | IC50 (PDE1C) | Compound
2.6 nM | 14 nM | 18 nM | CCOc1ncccc1-c1cc(NCc2ccnc(OC)c2)c2c(C(C)C)nn(C)c2n1 [Example 7, 6-(2-ethoxy-3-pyridyl)-3-isopropyl-N-[(2-methoxy-4-pyridyl)methyl]-1-methyl-pyrazolo[3,4-b]pyridin-4-amine]
1.8 nM | 9.6 nM | 4.4 nM | CCOc1ncccc1-c1cc(NCc2ccnc(OC)c2)c2c(C(C)CC)nc(C)n2n1 (single isomer, unassigned; (-)) [Example 54, (−)-2-(2-ethoxy-3-pyridyl)-N-[(2-methoxy-4-pyridyl)methyl]-7-methyl-5-[1-methylpropyl]imidazo[1,5-b]pyridazin-4-amine]
1.7 nM | 7.3 nM | 9 nM | CCOc1ncccc1-c1cc(NCc2ccnc(OC)c2)c2c(C(C)C)nc(C)n2n1 [Example 15, 2-(2-ethoxy-3-pyridyl)-5-isopropyl-N-[(2-methoxy-4-pyridyl)methyl]-7-methyl-imidazo[1,5-b]pyridazin-4-amine]
1.6 nM | 15 nM | 13 nM | CCOc1ncccc1-c1cc(NCc2cc[nH]n2)c2c(C(C)C)nc(C)n2n1 [Example 10, 2-(2-ethoxy-3-pyridyl)-5-isopropyl-7-methyl-N-(1H-pyrazol-3-ylmethyl)imidazo[1,5-b]pyridazin-4-amine]
1.5 nM | 6.2 nM | 5.1 nM | CCOc1ncccc1-c1cc(NCc2cncc(OC)c2)c2c(C(C)C)nc(C)n2n1 [Example 14, 2-(2-ethoxy-3-pyridyl)-5-isopropyl-N-[(5-methoxy-3-pyridyl)methyl]-7-methyl-imidazo[1,5-b]pyridazin-4-amine]
1.5 nM | 6.1 nM | 5.7 nM | CCOc1ncccc1-c1cc(NCc2cnc(C)s2)c2c(C(C)C)nc(C)n2n1 [Example 17, 2-(2-ethoxy-3-pyridyl)-5-isopropyl-7-methyl-N-[(2-methylthiazol-5-yl)methyl]imidazo[1,5-b]pyridazin-4-amine]
1.2 nM | 14 nM | 20 nM | CCOc1ncccc1-c1cc(NCc2cc(C)[nH]n2)c2c(C(C)C)nn(C)c2n1 [Example 6, 6-(2-ethoxy-3-pyridyl)-3-isopropyl-1-methyl-N-[(5-methyl-1H-pyrazol-3-yl)methyl]pyrazolo[3,4-b]pyridin-4-amine]
1.1 nM | 8.9 nM | 19 nM | CCOc1ncccc1-c1cc(NCc2noc(C)n2)c2c(C(C)C)nn(C)c2n1 [Example 5, 6-(2-ethoxy-3-pyridyl)-3-isopropyl-1-methyl-N-[(5-methyl-1,2,4-oxadiazol-3-yl)methyl]pyrazolo[3,4-b]pyridin-4-amine]
0.65 nM | 12 nM | 6.1 nM | CCOc1ncccc1-c1cc(NCc2cc[nH]n2)c2c(C(C)CC)nc(C)n2n1 (single isomer, unassigned; (-)) [Example 52, (−)-2-(2-ethoxy-3-pyridyl)-7-methyl-N-(1H-pyrazol-3-ylmethyl)-5-[1-methylpropyl]imidazo[1,5-b]pyridazin-4-amine]
0.64 nM | 5.8 nM | 4.9 nM | CCOc1ncccc1-c1cc(NCc2cnn(C)c2)c2c(C(C)CC)nc(C)n2n1 (single isomer, unassigned; (+)) [Example 48, (+)-2-(2-ethoxy-3-pyridyl)-7-methyl-N-[(1-methylpyrazol-4-yl)methyl]-5-[1-methylpropyl]imidazo[1,5-b]pyridazin-4-amine]
0.35 nM | 3.6 nM | 4 nM | CCOc1ncccc1-c1cc(NCc2noc(C)n2)c2c(C(C)C)nc(C)n2n1 [Example 12, 2-(2-ethoxy-3-pyridyl)-5-isopropyl-7-methyl-N-[(5-methyl-1,2,4-oxadiazol-3-yl)methyl]imidazo[1,5-b]pyridazin-4-amine]
0.34 nM | 11 nM | 13 nM | CCOc1ncccc1-c1cc(NCc2ncn(C)n2)c2c(C(C)C)nn(C)c2n1 [Example 4, 6-(2-ethoxy-3-pyridyl)-3-isopropyl-1-methyl-N-[(1-methyl-1,2,4-triazol-3-yl)methyl]pyrazolo[3,4-b]pyridin-4-amine]
0.31 nM | 4.1 nM | 2.7 nM | CCOc1ncccc1-c1cc(NCc2cc(C)[nH]n2)c2c(C(C)C)nc(C)n2n1 [Example 13, 2-(2-ethoxy-3-pyridyl)-5-isopropyl-7-methyl-N-[(5-methyl-1H-pyrazol-3-yl)methyl]imidazo[1,5-b]pyridazin-4-amine]
0.28 nM | 2 nM | 2.6 nM | CCOc1ncccc1-c1cc(NCc2ncn(C)n2)c2c(C(C)C)nc(C)n2n1 [Example 11, 2-(2-ethoxy-3-pyridyl)-5-isopropyl-7-methyl-N-[(1-methyl-1,2,4-triazol-3-yl)methyl]imidazo[1,5-b]pyridazin-4-amine]
0.22 nM | 2.4 nM | 2.6 nM | CCOc1ncccc1-c1cc(NCc2cn(C)cn2)c2c(C(C)C)nc(C)n2n1 [Example 8, 2-(2-ethoxy-3-pyridyl)-5-isopropyl-7-methyl-N-[(1-methylimidazol-4-yl)methyl]imidazo[1,5-b]pyridazin-4-amine]
